Source: patent publication US8618104B2, “Salts of methyl (R)-7-[3-amino-4-(2,4,5-trifluoro-phenyl)-butyryl]-3-trifluoromethyl-5,6,7,8-tetrahydro-imidazo[1,5-A]pyrazine-1-carboxylate” (Jiangsu Hengrui Medicine Co., Ltd., priority 2009, dated 2013)

Experiments:
[1] = Stability of compound A and its salts, content by HPLC; format: physicochemical; details: for Content by HPLC after storage: raw material purity 98.6%
Procedure: (1) Content Determination Method
With a Octadecyl silane chemically bonded silica as bulking agent and 0.1% aqueous solution of ammonia-acetonitrile (65:35) as mobile phase, eluted in gradient mode at detection wavelength of 230 nm. Appropriate amount of test sample and reference solution was taken, then water was added to dissolve which to form solutions every 1 ml containing 0.2 mg of them respectively. The test sample solution and reference solution 10 μl was respectively taken and injected into the liquid chromatograph. chromatograph chart was recorded, and calculated by peak area according to the external standard method.
The stability of different types of the pharmaceutically acceptable salts of compound A under different conditions

in vivo = details: male, rat, po, 6 mg/kg
Procedure: (§1) 16 healthy male rats weighing 200˜220 g were randomly divided into four groups. […] The plasma was separated, preserved for test under −20° C. The blood concentration was tested by HPLC-Tandem Mass Spectrum.

[2] = test system: genetic obese Wistar rats with diabetes; experiment: Effects of the 6 salts in genetic obese Wistar rats with diabetes (14 days); format: in vivo, rat; details: for Hemoglobin (hemoglobin A1) / Plasma glucose: male Wistar fat rats, 10 mg/kg/day p.o. in feed, mean ± SD, n=5-6
Procedure: 14 to 19 week-old male Wistar fat rats were divided into five groups, each to group 5 to 6, and they were respectively administered the 6 salts of compound A (each 10 mg/kg weight/day, p.o.) which were mixed in commercial feed at a ratio of […] for 14 days. The blood was taken from tail vein, a commercial kits (NC-ROPET, Nippon Chemiphar CO.) was used to measure plasma glucose and hemoglobin A1 by enzymatic is method. The results were expressed as mean value of each group (n=5-6)±standard deviation and analyzed by Dunnett's test which were shown in table 2. A significance level of 1% was used.

[3] = Absorption tests in rats of different salts (pharmacokinetics); details: rat, 6.0 mg/kg (by base) by gavage; for t1/2: 0.5% CMC-Na suspension
Procedure: as §1

[4] = test system: genetic obese Wistar rats with diabetes; experiment: Oral glucose tolerance test in genetic obese Wistar rats with diabetes; format: in vivo, rat; details: for Plasma glucose: 30 mg/kg/day p.o. for 7 days, mean ± SD
Procedure: 13˜14 week-old male fat rats were divided into five groups, each group five. They were respectively administered the 6 salts of compound A (each 30 mg/kg/day, p.o.) for 7 days. After overnight fasting, oral glucose tolerance tests were conducted immidiately (2 g glucose/kg/5 ml, p.o.). Before and 120 and 240 mins after the glucose tolerance test, blood was collected from the tail vein, and plasma glucose was analyzed by enzymatic method (Encore Chemical System; Baker). Results were expressed as mean value of each group (n=5-6)±standard deviation analyzed by Dunnett's test which were shown in table 3.

[5] = 0 min (before glucose load 2 g/kg p.o.)
[6] = 120 min after glucose load 2 g/kg p.o.
[7] = 240 min after glucose load 2 g/kg p.o.

Content by HPLC after storage ([1]; 40° C., 10 days) | Content by HPLC after storage ([1]; 60° C., 10 days) | Content by HPLC after storage ([1]; Light, 10 days) | Content by HPLC after storage ([1]; RH60%, 25° C., nine months) | Content by HPLC after storage ([1]; RH75%, 40° C., six months) | AUC0-t [3] | AUC0-∞ [3] | CL/F [3] | Cmax [3] | MRT [3] | Tmax [3] | t1/2 [3] | SMILES | Hemoglobin (hemoglobin A1) [2] | Plasma glucose [2] | Plasma glucose [4, 5] | Plasma glucose [4, 6] | Plasma glucose [4, 7] | further results
95.2% | 95.7% | 95.2% | 93.3% | 92.2% | – | – | – | – | – | – | – | COC(=O)c1nc(C(F)(F)F)n2c1CN(C(=O)C[C@H](N)Cc1cc(F)c(F)cc1F)CC2 [Compound A, (R)-7-[3-amino-4-(2,4,5-trifluoro-phenyl)-butyryl]-3-trifluoromethyl-5,6,7,8-tetrahydro-imidazo[1,5-a]pyrazine-1-carboxylic acid methyl ester] | – | – | – | – | – | AUC0-t (in vivo): 409 ng·h/mL; AUC(0-inf) (in vivo): 425 ng·h/mL; CL/F (in vivo): 545 mL/min/kg; Cmax (in vivo): 242 ng/mL; MRT (in vivo): 1.96 h; Tmax (in vivo): 0.5 h; half-life (in vivo): 1.54 h
98.7% | 98.2% | 98.1% | 97.5% | 97.7% | 317 ng·h/mL | 319 ng·h/mL | 348 mL/min/kg | 148 ng/mL | 1.86 h | 0.63 h | 1.07 h | COC(=O)c1nc(C(F)(F)F)n2c1CN(C(=O)C[C@H](N)Cc1cc(F)c(F)cc1F)CC2.Cl [Hydrochloride of compound A, hydrochloride of (R)-7-[3-amino-4-(2,4,5-trifluoro-phenyl)-butyryl]-3-trifluoromethyl-5,6,7,8-tetrahydro-imidazo[1,5-a]pyrazine-1-carboxylic acid methyl ester] | 4.5 ± 0.5 | 165 ± 13 | 109 ± 5 mg/dL | 116 ± 7 mg/dL | 106 ± 3 mg/dL | Effect on blood glucose and hemoglobin in words ([2]; Wistar fat rats, 10 mg/kg/day): reduce the concentration of blood glucose and hemoglobin obviously; Stability test result in words ([1]; conclusion over all storage conditions): most satisfying; Effect on increase of blood sugar after the glucose tolerance test in words ([4]; 30 mg/kg/day p.o., 7 days): significantly inhibited the increase of blood sugar
96.7% | 96.5% | 97.6% | 95.6% | 95.4% | 274 ng·h/mL | 275 ng·h/mL | 397 mL/min/kg | 133 ng/mL | 1.61 h | 0.88 h | 0.87 h | COC(=O)c1nc(C(F)(F)F)n2c1CN(C(=O)CC(N)Cc1cc(F)c(F)cc1F)CC2.CS(=O)(=O)O (stereo not shown) [Mesylate of compound A] | 5.8 ± 0.4 | 287 ± 34 | 108 ± 8 mg/dL | 115 ± 9 mg/dL | 92 ± 7 mg/dL | –
